Data reported in ChEMBL document CHEMBL4725390, “Asymmetrically Substituted Quadruplex-Binding Naphthalene Diimide Showing Potent Activity in Pancreatic Cancer Models” (ACS Med Chem Lett, 2020).
Activity calls are given as the source filed them. The calls are words filed in the database; no cut-off is given here.

Columns and labels:
Mus musculus [1] = test: Up regulation of cleaved PARP protein expression in mouse xenografted with human MIAPaCa2 cells at 1 mg/kg, iv administered twice per week for 28 days measured on day 28 by Western blot analysis; assay type: functional, organism-based; conditions: time 28.0 day
Mus musculus [2] = test: Effect on hTERT expression in mouse xenografted with human MIAPaCa2 cells at 1 mg/kg, iv administered once per week for 28 days and measured on day 28 by Western blot analysis; assay type: functional, organism-based; conditions: time 28.0 day
MIA PaCa-2 [3] = test: Downregulation of Rap1 signaling pathway related gene expression in human MIAPaCa2 cells at 40 nM after 24 hrs by RNA sequencing analysis; assay type: functional, cell-based
MIA PaCa-2 [4] = test: Antitumor activity against human MIAPaCa2 cells xenografted in mouse assessed as change in tumor volume at 1 mg/kg, iv administered twice per week for 28 days and measured at day 53 by Caliper method relative to control; assay type: functional; conditions: time 28 day
[5] = Downregulation of WNT5B mRNA expression in human MIAPaCa2 cells at 40 nM after 24 hrs by RNA sequencing analysis relative to control; assay type: functional, MIA PaCa-2
MIA PaCa-2 [6] = test: Antiproliferative activity against human MIAPaCa2 cells assessed as growth inhibition after 96 hrs by SRB assay; assay type: functional
MIA PaCa-2 [7] = test: Downregulation of Wnt signaling pathway related gene expression in human MIAPaCa2 cells at 40 nM after 24 hrs by RNA sequencing analysis; assay type: functional, cell-based
BXPC-3 = test: Antiproliferative activity against human BxPC3 cells assessed as growth inhibition after 96 hrs by SRB assay; assay type: functional
Quadruplex DNA [8] = test: Binding affinity to G4 quadruplex DNA in human PANC1 cells assessed as BG4 foci formation at 400 to 800 nM after 24 hrs by immunofluorescence based confocal microscopic analysis; assay type: cell-based; conditions: PANC-1, dose nM 400-800, time 24.0 hrs
[9] = Antitumor activity in KPC-induced PDAC mouse model expressing active KRASG12D and mutant p53R172H assessed as median survival time at 1 mg/kg, iv administered once per week up to 3 weeks (reference value: 12 days); assay type: functional
MIA PaCa-2 [10] = test: Downregulation of DNA replication associated gene expression in human MIAPaCa2 cells at 40 nM after 24 hrs by RNA sequencing analysis; assay type: functional, cell-based
[11] = Toxicity in mouse xenografted with human MIAPaCa2 cells assessed as effect on neuronal clinical signs at 1 mg/kg, iv administered twice per week for 28 days; assay type: organism-based; conditions: in vivo, 672 h, time 28 day
MIA PaCa-2 [12] = test: Downregulation of TNF signaling pathway related gene expression in human MIAPaCa2 cells at 40 nM after 6 hrs by RNA sequencing analysis; assay type: functional, cell-based
[13] = Downregulation of hTERT mRNA expression in human MIAPaCa2 cells at 40 nM after 24 hrs by RNA sequencing analysis relative to control; assay type: functional, MIA PaCa-2
[14] = Downregulation of AXIN1 mRNA expression in human MIAPaCa2 cells at 40 nM after 24 hrs by RNA sequencing analysis relative to control; assay type: functional, MIA PaCa-2
MIA PaCa-2 [15] = test: Antitumor activity against human MIAPaCa2 cells xenografted in mouse assessed as change in tumor volume at 15 mg/kg, iv administered twice per week for 28 days and measured at day 53 by Caliper method relative to control; assay type: functional; conditions: time 28 day
[16] = Half life in mouse xenografted with human MIAPaCa2 cells at 0.96 mg/kg, iv administered as single dose; assay type: ADME, organism-based; conditions: in vivo
MIA PaCa-2 [17] = test: Downregulation of axon guidance related gene expression in human MIAPaCa2 cells at 40 nM after 24 hrs by RNA sequencing analysis; assay type: functional, cell-based
Quadruplex DNA [18] = test: Binding affinity to G4 quadruplex DNA in human PANC1 cells assessed as increase in number of BG4 foci at 100 nM after 24 hrs by immunofluorescence based confocal microscopic analysis; assay type: cell-based; conditions: PANC-1
[19] = Cmax in mouse xenografted with human MIAPaCa2 cells at 0.96 mg/kg, iv administered as single dose; assay type: ADME, organism-based; design: route intravenous, dose 0.96 mg/kg; conditions: in vivo
[20] = Clearance in mouse xenografted with human MIAPaCa2 cells at 0.96 mg/kg, iv administered as single dose; assay type: ADME, organism-based; conditions: in vivo
[21] = Toxicity in mouse xenografted with human MIAPaCa2 cells assessed as drug tolerability at 1 mg/kg, iv administered once per week for 28 days; assay type: organism-based; conditions: in vivo, 672 h, time 28 day
MIA PaCa-2 [22] = test: Downregulation of Wnt signaling pathway related gene expression in human MIAPaCa2 cells at 40 nM after 6 hrs by RNA sequencing analysis; assay type: functional, cell-based
CAPAN-1 = test: Potency index, ratio of 2,7-bis(3-morpholinopropyl)-4-((2-(pyrrolidin-1-yl)ethyl)amino)benzo[lmn][3,8]phenanthroline-1,3,6,8(2H,7H)-tetraone IC50 to test compound IC50 for human Capan1 cells measured after 96 hrs by SRB assay; assay type: functional
MIA PaCa-2 [23] = test: Downregulation of NF-kappaB signalling pathway related gene expression in human MIAPaCa2 cells at 40 nM after 6 hrs by RNA sequencing analysis; assay type: functional, cell-based
MIA PaCa-2 [24] = test: Antitumor activity against human MIAPaCa2 cells xenografted in mouse assessed as mean tumor volume at 1 mg/kg, iv administered twice per week for 28 days and measured at day 28 by Caliper method (reference value: 0.45 +/- 0.18 cm3); assay type: functional; conditions: time 28 day
MIA PaCa-2 [25] = test: Antitumor activity against human MIAPaCa2 cells xenografted in mouse assessed as change in tumor volume at 1 mg/kg, iv administered once per week for 28 days and measured at day 28 by Caliper method relative to control; assay type: functional; conditions: time 28 day
PANC-1 = test: Potency index, ratio of 2,7-bis(3-morpholinopropyl)-4-((2-(pyrrolidin-1-yl)ethyl)amino)benzo[lmn][3,8]phenanthroline-1,3,6,8(2H,7H)-tetraone IC50 to test compound IC50 for human PANC1 cells measured after 96 hrs by SRB assay; assay type: functional

O=C1c2cc(-c3ccc(CN4CCCC4)cc3)c3c4c(cc(NCCN5CCCC5)c(c24)C(=O)N1CCCN1CCOCC1)C(=O)N(CCCN1CCOCC1)C3=O [QN-302]
Activity (Mus musculus [1]): Active
Activity (Mus musculus [2]): inactive
inhibition (MIA PaCa-2 [3]): Active
Activity (MIA PaCa-2 [4]): -90.6%
log2FC [5]: 0.57
GI50 (MIA PaCa-2 [6]): 1.3 nM
inhibition (MIA PaCa-2 [7]): Active
GI50 (BXPC-3): 2.6 nM
Activity (Quadruplex DNA [8]): inactive
MST [9]: 24 days
inhibition (MIA PaCa-2 [10]): Active
Activity [11]: Non-Toxic
inhibition (MIA PaCa-2 [12]): Active
log2FC [13]: 1.02
log2FC [14]: 0.39
Activity (MIA PaCa-2 [15]): -78.1%
half-life [16]: 37 h
inhibition (MIA PaCa-2 [17]): Active
Activity (Quadruplex DNA [18]): Active
Cmax [19]: 4180 ng/mL
clearance [20]: 2.2 mL/min/kg
Activity [21]: Non-Toxic
inhibition (MIA PaCa-2 [22]): Active
Ratio IC50 (CAPAN-1): 5
inhibition (MIA PaCa-2 [23]): Active
Activity (MIA PaCa-2 [24]): 0.06 cm3
Activity (MIA PaCa-2 [25]): -82.2%
Ratio IC50 (PANC-1): 10
